# Results taken from patent US20080226565A1, “Anticariogenic Proteins & Peptides & Saccharides” (priority 2004, published 2008).
# Columns and labels:
# [1] = tested on: anaerobes isolated from the oral cavity; experiment: Susceptibility (MIC), agar dilution, anaerobes from the oral cavity; type: cell-based, anaerobic bacteria; settings: explored range 0.2 to 3.5 mg/ml
# Method: (§1) The investigations included more than hundred strains isolated from the oral cavity: : anaerobes, microaerophilic bacteria, aerobes, Streptococcus spp. and yeast like fungi. The microorganisms were isolated from saliva, mucosal membrane, gingival pockets and caries decay. The susceptibility (MIC) of bacteria and yeastlike fungi were determined by means of plate dilution technique in agar.
# (§2) The investigated samples were dissolved in sterile distilled water (immediately before the experiment) to obtain the following concentrations: 3.5, 1.7, 0.8, 0.4 and 0.2 mg/ml and were added into appropriate agar. The plates were inoculated using a Steers multipoint inoculator. Inoculum contained 10^6 CFU/spot. In each experimental series, the growth of strains on the culture medium without the compounds investigated was checked. The concentration at which no macroscopic growth of the microbes was observed on the medium was regarded as the lowest concentration, inhibiting the growth of microbes (MIC). The examinations of the susceptibility of microbes to the peptides were carried out twice.
# (§3) Anaerobes. The susceptibility of bacteria was determined by means of the agar dilution methods with Brucella agar supplemented with 5% defibrinated sheep's blood, menadione and hemin. Sample solutions with concentrations from of 3.5-0.2 mg/ml were added into agar. The agar plate without investigated samples was included as a bacterial growth control. The inoculum of 10^6 CFU/ml was applied to the agar plates with Steers replicator. Incubation was performed for 48 hrs at 37° C. (310° K) in anaerobic jars containing a mixture of 10% CO2, 10% H2 and 80% N2, in the presence of palladium catalyst and indicator of anaerobiosis. Microaerophilic bacteria. The susceptibility of bacteria was determined by means of the agar dilution methods with Brucella agar supplemented with 5% sheep's blood. Samples solutions with concentrations from of 3.5- 0.2 mg/ml were added into agar. The agar plate without investigated samples was included as a bacterial growth control. The inoculum of 10^6 CFU/ml was applied to the agar plates with Steers replicator. The incubation was performed at 37° C. in anaerobic jars with Campy Pak (bio Merieux) for 48 hours. Streptococcus spp. The susceptibility of bacteria was determined by means of the agar dilution methods with Mueller-Hinton agar supplemented with 5% sheep's blood. Samples solutions with concentrations from of 3.5- 0.2 mg/ml were added into agar. The agar plate without investigated samples was included as a bacterial growth control. The inoculum of 10^6 CFU/ml was applied to the agar plates with Steers replicator. Incubation was performed for 24 hrs at 37° C. (310° K) in anaerobic jars containing a mixture of 10% CO2 and 90% N2. Aerobes. The susceptibility to investigated samples was determined by means of the plate dilution technique in Mueller-Hinton agar. Samples solutions with concentrations from of 3.5- 0.2 mg/ml were added into agar. The agar plate without investigated samples was included as a bacterial growth control. The inoculum of 10^6 CFU/ml was applied to the agar plates with Steers replicator. Plates were incubated for 24 hrs in 37° C. under aerobic conditions. Yeast like fungi. The susceptibility of fungi to investigated samples was determined by means of the plate dilution technique in Sabouraud's agar. Samples solutions with concentrations from of 3.5- 0.2 mg/ml were added into agar. […]
# [2] = tested on: aerobes isolated from the oral cavity; experiment: Susceptibility (MIC), agar dilution, aerobes from the oral cavity; type: cell-based, aerobic bacteria; settings: explored range 0.2 to 3.5 mg/ml
# Method: as §1, §2
# as §3, with “control. […]” for “control. The inoculum of 10^6 CFU/ml was applied to the agar plates with Steers replicator. Incubation was performed for 24 hrs at 37° C. (310° K) in anaerobic jars containing a mixture of 10% CO2 and 90% N2. Aerobes.”, “agar. […]” for “agar. Samples solutions with concentrations from of 3.5- 0.2 mg/ml were added into agar. The agar plate without investigated samples was included as a bacterial growth control. The inoculum of 10^6 CFU/ml was applied to the agar plates with Steers replicator. Plates were incubated for 24 hrs in 37° C. under aerobic conditions. Yeast like fungi.”, “agar.” for “agar. Samples solutions with concentrations from of 3.5- 0.2 mg/ml were added into agar.”
# [3] = Solubility in water; type: physicochemical
substance,measurement,setting,value
3-hydroxyphthalated e-polylysine [Product 27],activity against anaerobes,[1],less effective
same,activity against aerobes,[2],not active
same,pH at which soluble in water,[3],above 9
